Experimental data taken from patent US20190002436A1, “RESPIRATORY SYNCYTIAL VIRUS INHIBITORS” (MEDIVIR AB, priority 2015, published 2019).

Test system: RSV (Long)
Assay: RSV cytopathic effect (CPE)-based viral replication assay
Type: cell-based, respiratory syncytial virus (RSV)
Details: HEp-2 cells infected with RSV Long at MOI 0.015; 3 days at 37° C.; cell viability by CellTiter-Glo luminescence; read-out: EC50 (nm)
Protocol: Example A: RSV Cytopathic Effect
Compounds of the invention are initially tested in a cytopathic effect (CPE)-based viral replication assay using immortalized cells and a laboratory strain of RSV (Long). This assay evaluates the ability of a compound to inhibit viral replication.
Assay plates are prepared by seeding 2,500 HEp-2 cells (ATCC) per well of a 384-well black clear-bottom plate (Greiner Bio-One) in 20 μL of assay media (defined as DMEM supplemented with 2% heat-inactivated fetal bovine serum and 1% Penicillin/Streptomycin). Assay plates are incubated overnight at 37° C. in an incubator containing 5% CO2. The following day, a 10-point serial dilution of test compound is prepared in DMSO. Compounds are subsequently diluted with assay media and 20 μL of diluted compound (containing 1.5% DMSO) is transferred to an assay plate for evaluation of antiviral activity.
For the CPE assay, cells are infected at a Multiplicity of Infection (MOI) of 0.015 using 20 μL of RSV Long (ATCC) diluted in assay media. The DMSO concentration is constant throughout the assay plate, including the negative and positive controls. The assay plate is incubated for 3 days at 37° C. in an incubator containing 5% CO2. Cell viability is evaluated with the addition of 10 μL of CellTiter-Glo (ProMega). Luminescence is measured using an EnVision plate reader (Perkin Elmer). EC50 values are calculated using the raw data from the CPE assays.

SMILES	EC50
O=C1CC(c2c(Cn3c(=O)n(C4CC4)c4ccncc43)ncc3ccccc23)CN1 (stereo not shown) [Example 2019]	15 nM
CS(=O)(=O)N1CC2(C1)C(=O)N(Cc1ncc3ccccc3c1CF)c1ccccc12 [Example 59]	5.7 nM

Same assay, conditions: human respiratory syncytial virus, HEp-2, 72 h, HEp-2 cells infected with RSV Long at MOI 0.015; 3 days at 37° C.; cell viability by CellTiter-Glo luminescence; read-out: EC50 (nm)

SMILES	EC50
NC1(c2ccc3c(CCCCO)c(Cn4c(=O)n(C5CC5)c5ccncc54)ncc3c2)COC1 [Example 46g, 3-((7-(3-Aminooxetan-3-yl)-4-(4-hydroxybutyl)isoquinolin-3-yl)methyl)-1-cyclopropyl-1H-imidazo[4,5-c]pyridin-2(3H)-one]	8600 nM
CS(=O)(=O)Nc1cncc(-c2c(CN3C(=O)C4(CN(C(=O)C5(N)CC5)C4)c4ccccc43)ncc3ccccc23)c1 [Example 2006]	26 nM
O=c1n(Cc2ncc3ccccc3c2CCCCO)c2cnccc2n1C1CC1 [Example 1c, 1-cyclopropyl-3-((4-(4-hydroxybutyl)isoquinolin-3-yl)methyl)-1H-imidazo[4,5-c]pyridin-2(3H)-one]	13 nM
N[C@@H]1CCN(c2ccc3c(CCCCO)c(Cn4c(=O)n(C5CC5)c5ccncc54)ncc3c2)C1 [Example 32c, (R)-3-((7-(3-aminopyrrolidin-1-yl)-4-(4-hydroxybutyl)isoquinolin-3-yl)methyl)-1-cyclopropyl-1H-imidazo[4,5-c]pyridin-2(3H)-one]	5800 nM
CNC1(C(=O)N2CC3(C2)C(=O)N(Cc2ncc4ccccc4c2-c2ccc(C(N)=O)nc2)c2ccccc23)CC1 [Example 115c, 5-(3-((1-(1-(methylamino)cyclopropanecarbonyl)-2′-oxospiro[azetidine-3,3′-indolin]-1′-yl)methyl)isoquinolin-4-yl)picolinamide]	15 nM
CS(=O)(=O)c1ccc(-c2c(Cn3c(=O)n(C4CC4)c4ccncc43)ncc3ccccc23)cn1 [Example 70c, 1-Cyclopropyl-3-((4-(6-(methylsulfonyl)pyridin-3-yl)isoquinolin-3-yl)methyl)-1H-imidazo[4,5-c]pyridin-2(3H)-one]	19 nM
COC(=O)N1CCC(n2c(=O)n(Cc3ncc4cc(CN)ccc4c3CCCCO)c3cnccc32)CC1 [Example 24, Methyl 4-(3-((7-(aminomethyl)-4-(4-hydroxybutyl)isoquinolin-3-yl)methyl)-2-oxo-2,3-dihydro-1H-imidazo[4,5-c]pyridin-1-yl)piperidine-1-carboxylate]	2.4 nM
NC(c1ccc(-c2c(CN3C(=O)C4(CCN(C(=O)C5(N)CC5)CC4)c4ccncc43)ncc3ccccc23)cn1)C(F)(F)F (stereo not shown) [Example 2042]	22 nM
NC1(CNC(=O)N2CC3(C2)C(=O)N(Cc2ncc4ccccc4c2-c2cncc(F)c2)c2ccccc23)CC1 [Example 2004]	3 nM
NC1(C(=O)N2CCC3(CC2)C(=O)N(Cc2ncc4ccccc4c2-c2cncs2)c2cnccc23)CC1 [Example 2024]	8.2 nM
CS(=O)(=O)c1ccc(-c2c(Cn3c(=O)n(C4CC4)c4ccncc43)ncc3ccccc23)cc1 [Example 69d, 1-cyclopropyl-3-((4-(4-(methylsulfonyl)phenyl)isoquinolin-3-yl)methyl)-1H-imidazo[4,5-c]pyridin-2(3H)-one]	5.8 nM
CC1(n2c(=O)n(Cc3ncc4ccccc4c3-c3ccc(C4(N)COC4)nc3)c3cnccc32)CC1 [Example 2022]	19 nM
CC(C)(C)OC(=O)N1CC2(C1)C(=O)N(Cc1ncc3ccccc3c1CCCCO)c1ccccc12 [Example 36c, tert-butyl 1′-((4-(4-hydroxybutyl)isoquinolin-3-yl)methyl)-2′-oxospiro[azetidine-3,3′-indoline]-1-carboxylate]	2.2 nM
COC(=O)N1CC2(C1)C(=O)N(Cc1ncc3cc(C#N)c(F)cc3c1-c1cccnc1)c1ccccc12 [Example 2039]	46 nM
CS(=O)(=O)N1CC2(C1)C(=O)N(Cc1ncc3ccccc3c1-c1ccc(C#N)cc1)c1ccccc12 [Example 76]	2.5 nM
NC(=O)N1CC2(C1)C(=O)N(Cc1ncc3ccccc3c1-c1cccnc1)c1ccccc12 [Example 131, 2′-Oxo-1′-((4-(pyridin-3-yl)isoquinolin-3-yl)methyl)spiro[azetidine-3,3′-indoline]-1-carboxamide]	1.6 nM
O=C(N1CCC2(CC1)C(=O)N(Cc1ncc3ccccc3c1-c1cccnc1)c1cnccc12)C(F)(F)F [Example 129b, 1′-((4-(Pyridin-3-yl)isoquinolin-3-yl)methyl)-1-(2,2,2-trifluoroacetyl)spiro[piperidine-4,3′-pyrrolo[2,3-c]pyridin]-2′(1′H)-one]	5.2 nM
NC1(CC(=O)N2CCC3(CC2)C(=O)N(Cc2ncc4ccccc4c2-c2cccnc2)c2cnccc23)CC1 [Example 145, 1-(2-(1-Aminocyclopropyl)acetyl)-1′-((4-(pyridin-3-yl)isoquinolin-3-yl)methyl)spiro[piperidine-4,3′-pyrrolo[2,3-c]pyridin]-2′(1′H)-one]	8.1 nM
NC1(C(=O)N2CC3(C2)C(=O)N(Cc2ncc4ccccc4c2-c2cccnc2)c2ccccc23)CC1 [Example 147, 1-(1-aminocyclopropanecarbonyl)-1′-((4-(pyridin-3-yl)isoquinolin-3-yl)methyl)spiro[azetidine-3,3′-indolin]-2′-one]	18 nM
NC1(C(=O)N2CCC3(CC2)C(=O)N(Cc2ncc4ccccc4c2-c2ccc(C(=O)O)nc2)c2cnccc23)CC1 [Example 50b, 5-(3-((1-(1-aminocyclopropanecarbonyl)-2′-oxospiro[piperidine-4,3′-pyrrolo[2,3-c]pyridin]-1′(2′H)-yl)methyl)isoquinolin-4-yl)picolinic acid]	4.3 nM
NC1(CC(=O)N2CC3(C2)C(=O)N(Cc2ncc4ccccc4c2-c2cccnc2)c2ccccc23)CC1 [Example 156, 1-(2-(1-aminocyclopropyl)acetyl)-1′-((4-(pyridin-3-yl)isoquinolin-3-yl)methyl)spiro[azetidine-3,3′-indolin]-2′-one]	13 nM
CN(C)C(=O)c1ccc(-c2c(CN3C(=O)C4(CCN(C(=O)C5(N)CC5)CC4)c4ccncc43)ncc3ccccc23)cn1 [Example 120, 5-(3-((1-(1-aminocyclopropanecarbonyl)-2′-oxospiro[piperidine-4,3′-pyrrolo[2,3-c]pyridin]-1′(2′H)-yl)methyl)isoquinolin-4-yl)-N,N-dimethylpicolinamide]	4.7 nM
COC(=O)N1CCC2(CC1)C(=O)N(Cc1ncc3cc(Cl)ccc3c1-c1ccncc1)c1cnccc12 [Example 165b, Methyl 1′-((7-chloro-4-(pyridin-4-yl)isoquinolin-3-yl)methyl)-2′-oxo-1′,2′-dihydrospiro[piperidine-4,3′-pyrrolo[2,3-c]pyridine]-1-carboxylate]	1.8 nM
O=c1n(Cc2ncc3ccccc3c2CCCCO)c2cnccc2n1CC(F)(F)F [Example 3c, 3-((4-(4-hydroxybutyl)isoquinolin-3-yl)methyl)-1-(2,2,2-trifluoroethyl)-1H-imidazo[4,5-c]pyridin-2(3H)-one]	23 nM
O=c1n(Cc2ncc3ccccc3c2CCCCO)c2cnccc2n1-c1ccc(F)cc1 [Example 4c, 1-(4-fluorophenyl)-3-((4-(4-hydroxybutyl)isoquinolin-3-yl)methyl)-1H-imidazo[4,5-c]pyridin-2(3H)-one]	20 nM
CC(C)(O)C(=O)N1CCC2(CC1)C(=O)N(Cc1ncc3ccccc3c1-c1cccnc1)c1cnccc12 [Example 138, 1-(2-hydroxy-2-methylpropanoyl)-1′-((4-(pyridin-3-yl)isoquinolin-3-yl)methyl)spiro[piperidine-4,3′-pyrrolo[2,3-c]pyridin]-2′(1′H)-one]	3.6 nM
